According to paper PMC8148055 (Acta Pharmaceutica Sinica. B, 2020):

Biological target: sirtuin 6 (SIRT6) (Homo sapiens, UniProt Q8N6T7)
Test: Fluor de Lys deacetylation assay
Assay type: biochemical

sirtuin 6 (SIRT6), sequence (Q8N6T7 2-355): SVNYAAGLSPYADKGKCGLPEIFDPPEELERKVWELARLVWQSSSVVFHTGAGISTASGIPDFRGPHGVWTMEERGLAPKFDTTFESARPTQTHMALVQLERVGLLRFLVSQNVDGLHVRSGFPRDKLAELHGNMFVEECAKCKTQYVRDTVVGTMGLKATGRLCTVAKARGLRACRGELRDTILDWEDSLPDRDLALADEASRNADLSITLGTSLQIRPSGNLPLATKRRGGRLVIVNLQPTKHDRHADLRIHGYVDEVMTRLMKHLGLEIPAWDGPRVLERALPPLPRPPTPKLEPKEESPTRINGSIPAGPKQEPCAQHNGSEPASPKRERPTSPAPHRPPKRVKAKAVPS

MDL-801-E1
Fluor de Lys deacetylation assay (about 4-fold activation): ~ 4 fold
